From US20040072815A1, “Antibiotic composition and method” (priority 2003, published 2004)

How the values were obtained:
[1] = target: N-acetylated, α-linked, acidic dipeptidase (NAALADase) (Homo sapiens, UniProt Q04609); experiment: inhibition of NAALADase by clavulanic acid (applicant's discovery, no method given); format: biochemical; settings: statement in words, no data
serine β-lactamase = settings: background statement in words; cited from earlier work
bacteria = settings: clavulanic acid alone; background statement in words; cited from earlier work

N-acetylated, α-linked, acidic dipeptidase (NAALADase), sequence (Q04609 whole entry): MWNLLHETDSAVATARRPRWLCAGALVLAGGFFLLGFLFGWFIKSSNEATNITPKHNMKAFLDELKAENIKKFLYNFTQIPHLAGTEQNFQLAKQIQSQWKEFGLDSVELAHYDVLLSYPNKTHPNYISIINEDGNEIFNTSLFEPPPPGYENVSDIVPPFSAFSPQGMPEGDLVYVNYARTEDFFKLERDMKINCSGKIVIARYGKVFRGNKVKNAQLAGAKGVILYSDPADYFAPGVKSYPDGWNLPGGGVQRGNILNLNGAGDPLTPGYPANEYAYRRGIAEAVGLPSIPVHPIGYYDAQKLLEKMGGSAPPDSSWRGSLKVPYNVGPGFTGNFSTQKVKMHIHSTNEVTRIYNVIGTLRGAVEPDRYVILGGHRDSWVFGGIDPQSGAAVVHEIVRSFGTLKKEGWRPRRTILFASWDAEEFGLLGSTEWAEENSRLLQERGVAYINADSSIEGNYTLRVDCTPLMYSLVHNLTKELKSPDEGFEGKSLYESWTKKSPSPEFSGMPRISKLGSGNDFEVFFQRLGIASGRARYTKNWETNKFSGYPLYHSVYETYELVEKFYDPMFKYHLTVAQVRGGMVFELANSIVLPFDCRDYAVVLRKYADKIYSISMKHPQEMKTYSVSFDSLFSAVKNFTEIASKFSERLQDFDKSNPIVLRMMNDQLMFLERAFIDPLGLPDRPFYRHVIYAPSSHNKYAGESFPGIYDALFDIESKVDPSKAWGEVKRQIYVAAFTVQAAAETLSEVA

## O=C(O)[C@H]1/C(=C/CO)O[C@@H]2CC(=O)N21 [clavulanic acid]
[1]
  inhibition of NAALADase: potent inhibitor
Serine β-lactamase
  binding affinity for the serine β-lactamases: very high binding affinity
  inhibition of "serine" β-lactamase: potent inhibitor
bacteria
  antibacterial activity: only weak, though broad spectrum, antibacterial activity
